Source: patent US9468209B2, “Method for eradicating weeds with derivatives of 3-acetyl-5-sec-butyl-4-hydroxy-3-pyrrolin-2-one” (priority 2012, dated 2016)

Assays:
Crofton weed = experiment: Needle puncture pathogenic test on slightly wounded leaf of Crofton weed; format: in vivo; conditions: Crofton weed leaf, 50 μg/mL, 25° C., natural light
In short: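 Compounds in a little methanol were diluted with water to 50 μg/mL (5–100 μg/g in a range test) and applied by needle to slightly wounded Crofton weed leaves. Leaves were kept at 25 °C under natural light with six or more replicates, against methanol/water controls. Lesion spot diameter was measured after 24 h.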

Hill reaction = Hill reaction activity of treated Crofton weed leaves; format: biochemical; conditions: 50 μg/mL, strong light 12 hours
Method: (§1) Compounds 10-57 were dissolved in small amount of methanol. The solutions were then diluted with distilled water to a concentration of 50 μg/mL. A mixture of methanol and water in the same ratio as the sample solution was also prepared and used as control in the experiment. The healthy leaves of Crofton weed were washed in water for 30 minutes and then rinsed with distilled water. The clean and tissue dried leaves were placed in petri dish with the back-side of the leaves facing up. Wet filter paper was also placed in the in petri dish for moisture control. Water, methanol and chemical solutions of the analogues were applied to the back-side of each leaf. Test sample was then placed in vacuum chamber at 25° C. for 15 min followed by exposure to the strong light (400 μM m^−2 s^−1) for 12 hours. The leaf sample went through a series of test, and the Hill reaction rate, the electron transfer activity and fluorescence of chlorophyll were measured. Four leaves were used for each treatment and each test was repeated three times.

photosystem II = experiment: PSII oxygen evolution / electron transfer activity of treated Crofton weed leaves; format: biochemical; conditions: 50 μg/mL, strong light 12 hours
Method: as §1

[1] = tested on: fluorescence of chlorophyll; experiment: Fluorescence of chlorophyll of treated Crofton weed leaves; format: biochemical; conditions: 50 μg/mL, strong light 12 hours
Method: as §1

[2] = tested on: Alligator weed (Alternanthera philoxeroides); experiment: Leaf piece damage test; format: in vivo; design: key: 4: The leaf completely dead; 3: Two third of the leaf withered; 2: One half of the leaf withered; 1: Only edge of the leaf withered; 0: Not damage at all; conditions: 50 μg/mL, 4 days
Method: (§2) Compounds 7, 14, 15, 16, 40, 45, 48 and 53 were dissolved individually in small amount of methanol, and diluted with distilled water to concentration of 50 μg/mL. Methanol water solution and pure water were used as control. A piece of 5 mm leaf was taken from the second leaf of weed sample and was treated with the solution three times. 5 pieces of the leaf were prepared for each treatment. The damage data were collected 4 days later. The measurement of damage level is described in the Table 9.
(§3) The measurement of the plant damage was calculated by the formula: Damage Index=Σ(damage level×number of plants)×100/4/number of plants in each treatment.

Chenopodium serotinum = experiment: Leaf piece damage test; format: in vivo; design: key: 4: The leaf completely dead; 3: Two third of the leaf withered; 2: One half of the leaf withered; 1: Only edge of the leaf withered; 0: Not damage at all; conditions: 50 μg/mL, 4 days
Method: as §2, §3

Commelina bengalensis = experiment: Leaf piece damage test; format: in vivo; design: key: 4: The leaf completely dead; 3: Two third of the leaf withered; 2: One half of the leaf withered; 1: Only edge of the leaf withered; 0: Not damage at all; conditions: 50 μg/mL, 4 days
Method: as §2, §3

Erigeron annuus = experiment: Leaf piece damage test; format: in vivo; design: key: 4: The leaf completely dead; 3: Two third of the leaf withered; 2: One half of the leaf withered; 1: Only edge of the leaf withered; 0: Not damage at all; conditions: 50 μg/mL, 4 days
Method: as §2, §3

Galeopsis bifida = experiment: Leaf piece damage test; format: in vivo; design: key: 4: The leaf completely dead; 3: Two third of the leaf withered; 2: One half of the leaf withered; 1: Only edge of the leaf withered; 0: Not damage at all; conditions: 50 μg/mL, 4 days
Method: as §2, §3

Mosla scabra = experiment: Leaf piece damage test; format: in vivo; design: key: 4: The leaf completely dead; 3: Two third of the leaf withered; 2: One half of the leaf withered; 1: Only edge of the leaf withered; 0: Not damage at all; conditions: 50 μg/mL, 4 days
Method: as §2, §3

Oxalis corniculata = experiment: Leaf piece damage test; format: in vivo; design: key: 4: The leaf completely dead; 3: Two third of the leaf withered; 2: One half of the leaf withered; 1: Only edge of the leaf withered; 0: Not damage at all; conditions: 50 μg/mL, 4 days
Method: as §2, §3

[3] = tested on: Parthenocissus tricuspidata; experiment: Leaf piece damage test; format: in vivo; design: key: 4: The leaf completely dead; 3: Two third of the leaf withered; 2: One half of the leaf withered; 1: Only edge of the leaf withered; 0: Not damage at all; conditions: 50 μg/mL, 4 days
Method: as §2, §3

Rumex dentatus = experiment: Leaf piece damage test; format: in vivo; design: key: 4: The leaf completely dead; 3: Two third of the leaf withered; 2: One half of the leaf withered; 1: Only edge of the leaf withered; 0: Not damage at all; conditions: 50 μg/mL, 4 days
Method: as §2, §3

Sonchus asper = experiment: Leaf piece damage test; format: in vivo; design: key: 4: The leaf completely dead; 3: Two third of the leaf withered; 2: One half of the leaf withered; 1: Only edge of the leaf withered; 0: Not damage at all; conditions: 50 μg/mL, 4 days
Method: as §2, §3

Sonchus oleraceus = experiment: Leaf piece damage test; format: in vivo; design: key: 4: The leaf completely dead; 3: Two third of the leaf withered; 2: One half of the leaf withered; 1: Only edge of the leaf withered; 0: Not damage at all; conditions: 50 μg/mL, 4 days
Method: as §2, §3

Veronica percica = experiment: Leaf piece damage test; format: in vivo; design: key: 4: The leaf completely dead; 3: Two third of the leaf withered; 2: One half of the leaf withered; 1: Only edge of the leaf withered; 0: Not damage at all; conditions: 50 μg/mL, 4 days
Method: as §2, §3

Compound | Time of Disease spot (Crofton weed) [h] | Average diameter of spot after 24 h (Crofton weed) [mm] | Activity of Hill Reaction (Hill reaction) [uMO2/mgChlh] | PSII Activity of oxygen evolution (photosystem II) [uMO2/mgChlh] | Fv/Fm [1] | Damage level [2] | Damage level (Chenopodium serotinum) | Damage level (Commelina bengalensis) | Damage level (Erigeron annuus) | Damage level (Galeopsis bifida) | Damage level (Mosla scabra) | Damage level (Oxalis corniculata) | Damage level [3] | Damage level (Rumex dentatus) | Damage level (Sonchus asper) | Damage level (Sonchus oleraceus) | Damage level (Veronica percica)
CCCCC1NC(=O)C(C(C)=O)=C1O (centres unmarked) [Compound 14] | 13.8 ± 0.54 | 6.37 ± 0.04 | 67.37 | 34.01 | 0.79 | 3 | 2 | 3 | 3 | 2 | 2 | 4 | 2 | 2 | 3 | 3 | 2
CCCCCC1NC(=O)C(C(C)=O)=C1O (centres unmarked) [Compound 15] | 9.5 ± 1.26 | 9.61 ± 1.20 | 62.77 | 31.26 | 0.78 | 2 | 2 | 3 | 4 | 2 | 2 | 3 | 3 | 2 | 3 | 3 | 2
CCCCCCC1NC(=O)C(C(C)=O)=C1O (centres unmarked) [Compound 16] | 13.80 ± 0.54 | 7.61 ± 0.11 | 61.43 | 30.00 | 0.83 | 3 | 2 | 3 | 3 | 2 | 2 | 4 | 2 | 2 | 3 | 3 | 2
CCCC(Cl)C1NC(=O)C(C(C)=O)=C1O (centres unmarked) [Compound 40] | 11.93 ± 0.66 | 8.10 ± 0.90 | 46.20 | 24.00 | 0.82 | 3 | 2 | 3 | 3 | 3 | 2 | 4 | 2 | 2 | 3 | 3 | 3
CCC(C)C1NC(=O)C(C(=O)CCF)=C1O (centres unmarked) [Compound 44] | 12.0 ± 1.33 | 4.07 ± 0.51 | 59.15 | 40.75 | 0.79 | 4 | 3 | 3 | 4 | 3 | 2 | 4 | 3 | 3 | 3 | 3 | 3
CCC(C)C1NC(=O)C(C(=O)CCc2cc(Cl)cc(Cl)c2)=C1O (centres unmarked) [Compound 48] | 13.5 ± 2.77 | 4.33 ± 0.54 |  |  |  | 4 | 3 | 4 | 4 | 2 | 2 | 4 | 3 | 3 | 4 | 4 | 3
CCCC(C#N)C1NC(=O)C(=C(C)O)C1=O (centres unmarked) [Compound 53] | 12.90 ± 0.27 | 7.334 ± 0.845 | 42.72 | 32.12 | 0.79 | 3 | 3 | 3 | 3 | 3 | 2 | 4 | 3 | 2 | 3 | 4 | 3
